For one cell line, relative viability results are on record in the supplement of paper PMC10307832.

Assay in all cases: relative viability (nuclei count vs DMSO), 5 days (fraction); higher = more cells survive
Compound in one assay: Cc1ccc(C(=O)N(CCCN)[C@@H](c2nc3cc(Cl)ccc3c(=O)n2Cc2ccccc2)C(C)C)cc1 [Ispinesib]
In short, it runs like this:
(§1)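 Hoechst staining, done together with fixation and permeabilisation, marked nuclei for 4× imaging and MetaXpress counting. This followed 5 days without medium change after lung cancer cell lines, kept overnight at 37 °C in 1536-well plates, were pinned with five library-drug doses (not always all listed) spaced by √10 on vehicle-anchored plates. Viability is the ratio of treated-well to vehicle-well nuclei, expressed as a median across plates. Plates passed only at control CV below 25% with at least one doubling.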

Compound in another assay: C[C@]1(O)C[C@@H](c2nc(-c3ccc4ccc(-c5ccccc5)nc4c3)c3c(N)nccn32)C1 [Linsitinib]
In short, it runs like this:
as §1

Compound in the assay “Ispinesib + Palbociclib”: Cc1ccc(C(=O)N(CCCN)[C@@H](c2nc3cc(Cl)ccc3c(=O)n2Cc2ccccc2)C(C)C)cc1 [Ispinesib] + CC(=O)c1c(C)c2cnc(Nc3ccc(N4CCNCC4)cn3)nc2n(C2CCCC2)c1=O [Palbociclib] (partner 0.5 µM)
Put shortly:
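Cells from lung cancer lines were seeded into 1536-well plates and, one day later, dosed by pin tool. Treatments were either a single drug or a fixed dose of an anchor drug with five library-drug doses (not always all listed) in √10 steps. After 5 days, nuclei were stained in a one-step fixation (final 0.05% Triton X-100, 1% formaldehyde, 1 ug/ml Hoechst) and counted on 4× images, and relative viability is the treated-to-vehicle nuclei ratio, as the median of duplicate plates.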

As to UMC-11, the relative viability with Ispinesib (0.001 µM) was 1.01; in the assay with Ispinesib (0.003162 µM), 1.02; with Ispinesib (0.01 µM), 0.835; with Ispinesib (0.03162 µM), 0.32; in the assay with Ispinesib (0.1 µM) it was 0.264; with Linsitinib (0.01 µM), 0.975. Also, the relative viability with Linsitinib (0.03162 µM) was 0.854; with Linsitinib (0.1 µM) it was 1.02; in the assay with Linsitinib (0.3162 µM) it was 0.546; with Linsitinib (1 µM), 0.875; with Linsitinib (1 µM, anchor plate), 1.01; in the assay with Ispinesib + Palbociclib (first compound 0.001 µM), 0.336. Moreover, the relative viability came to 0.311 with Ispinesib + Palbociclib (first compound 0.003162 µM), 0.309 with Ispinesib + Palbociclib (first compound 0.01 µM), 0.217 with Ispinesib + Palbociclib (first compound 0.03162 µM) and 0.237 with Ispinesib + Palbociclib (first compound 0.1 µM).
